From US12527774B2, “Estrogen-related receptor alpha modulators” (LEAD PHARMA HOLDING B.V., priority 2019, dated 2026) come the findings set out here.

Structures are written as SMILES. Where only a bound is given, the exact number is not on record here.

Chain of ERRα ligand binding domain (ERRα-LBD) (P11474 193-421): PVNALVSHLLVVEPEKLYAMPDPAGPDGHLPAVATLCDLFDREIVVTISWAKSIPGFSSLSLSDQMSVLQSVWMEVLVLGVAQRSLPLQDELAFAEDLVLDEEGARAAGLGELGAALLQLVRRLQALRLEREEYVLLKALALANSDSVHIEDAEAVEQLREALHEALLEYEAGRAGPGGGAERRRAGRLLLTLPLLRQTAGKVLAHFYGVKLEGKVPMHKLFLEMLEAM

One experiment concerns the target ERRα ligand binding domain (ERRα-LBD) (Homo sapiens (Human), UniProt P11474). The experiment is described as follows: ERRα AlphaScreen Assay. The class given is biochemical. The conditions noted are these: disruption of binding of ERRα-LBD protein to biotin-PGC1α-3 co-activator peptide. Summed up:
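His-SUMO-tagged ERRα-LBD from E. coli (0.81 nM) preincubated 1 h at room temperature with compound, streptavidin donor and Ni-chelate acceptor beads (10 μg/mL each), then 2 h with 15 nM biotin-PGC1α-3 peptide (aa 202–220). Buffer: 50 mM Tris-HCl pH 7.5, 100 mM NaCl, 5 mM TCEP, 1% DMSO. Four-parameter IC50; mean pIC50 of replicate values.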
As to `CNc1ccc(COc2ccc(C3CC(=O)Nc4n[nH]cc43)cc2OC)c(C(F)(F)F)c1` (stereo not drawn) [Example 141, 4-(3-methoxy-4-{[4-(methylamino)-2-(trifluoromethyl)phenyl]methoxy}phenyl)-2H,4H,5H,6H,7H-pyrazolo[3,4-b]pyridin-6-one], the “mean pIC50” value is reported as not below 8. Same read-out and setting: under `COc1cc(C2CC(=O)Nc3n[nH]cc32)ccc1OCc1ccc(O)cc1C(F)(F)F` (stereo not drawn) [Example 154, 4-(4-{[4-hydroxy-2-(trifluoromethyl)phenyl]methoxy}-3-methoxyphenyl)-2H,4H,5H,6H, 7H-pyrazolo[3,4-b]pyridin-6-one] stands not below 8. Still for that read-out and setting: under `COc1cc(-c2cc(=O)[nH]c3n[nH]cc23)ccc1OCc1ccc(N)cc1C(F)(F)F` [Example 173, 4-(4-{[4-amino-2-(trifluoromethyl)phenyl]methoxy}-3-methoxyphenyl)-2H,6H,7H-pyrazolo[3,4-b]pyridin-6-one] stands not below 8. In the case of `COc1cc(-c2cc(=O)[nH]c3n[nH]cc23)ccc1OCc1ccccc1OC(F)F` [Example 180, 4-(4-{[2-(difluoromethoxy)phenyl]methoxy}-3-methoxyphenyl)-2H,6H, 7H-pyrazolo[3,4-b]pyridin-6-one], the “mean pIC50” value is on record as not below 8.

The same experiment, now with this note: disruption of binding of ERRα-LBD protein to biotin-PGC1α-3 co-activator peptide; read-out: mean pIC50 (converted).
Consider `COc1cc(C2CC(=O)Nc3n[nH]cc32)ccc1OCc1ccc(NC(C)=O)cc1C(F)(F)F` (stereo not drawn) [Example 139, N-{4-[(2-methoxy-4-{6-oxo-2H,4H,5H,6H,7H-pyrazolo[3,4-b]pyridin-4-yl}phenoxy)methyl]-3-(trifluoromethyl)phenyl}acetamide], for which the IC50 was 10 to 100 nM. Turning to `COC(=O)Cc1ccc(COc2ccc(C3CC(=O)Nc4n[nH]cc43)cc2OC)c(C(F)(F)F)c1` (stereo not drawn) [Example 148, methyl 2-[4-(2-methoxy-4-{6-oxo-2H,4H,5H,6H,7H-pyrazolo[3,4-b]pyridin-4-yl}phenoxymethyl)-3-(trifluoromethyl)phenyl]acetate], the IC50 was 100 to 1000 nM.

As to `COc1cc(C2CC(=O)Nc3n[nH]cc32)ccc1OCc1ccc(CC(=O)O)cc1C(F)(F)F` (stereo not drawn) [Example 151, 2-{4-[(2-methoxy-4-{6-oxo-2H,4H,5H,6H, 7H-pyrazolo[3,4-b]pyridin-4-yl}phenoxy)methyl]-3-(trifluoromethyl)phenyl}acetic acid], the IC50 is 100 to 1000 nM.

Turning to `COc1cc(C2CC(=O)Nc3n[nH]cc32)ccc1OCc1ccc(C(C)(C)CO)cc1C(F)(F)F` (stereo not drawn) [Example 152, 4-(4-{[4-(1-hydroxy-2-methylpropan-2-yl)-2-(trifluoromethyl)phenyl]methoxy}-3-methoxyphenyl)-2H,4H,5H,6H, 7H-pyrazolo[3,4-b]pyridin-6-one], the IC50 was 10 to 100 nM. Same read-out and setting: under `COc1cc(C2CC(=O)Nc3n[nH]cc32)ccc1OCc1ccc(CC(C)(C)O)cc1C(F)(F)F` (stereo not drawn) [Example 153, 4-(4-{[4-(2-hydroxy-2-methylpropyl)-2-(trifluoromethyl)phenyl]methoxy}-3-methoxyphenyl)-2H,4H,5H,6H,7H-pyrazolo[3,4-b]pyridin-6-one] stands 10 to 100 nM; under `COc1cc(C2CC(=O)Nc3c[nH]nc32)ccc1OCc1ccc(CCO)cc1C(F)(F)F` (stereo not drawn) [Example 156, 7-(4-{[4-(2-hydroxyethyl)-2-(trifluoromethyl)phenyl]methoxy}-3-methoxyphenyl)-2H,4H,5H,6H, 7H-pyrazolo[4,3-b]pyridin-5-one], 10 to 100 nM. Same read-out and setting: under `COc1cc(C2CC(=O)Nc3n[nH]cc32)ccc1OCc1cccc(OCCO)c1C(F)(F)F` (stereo not drawn) [Example 160, 4-(4-{[3-(2-hydroxyethoxy)-2-(trifluoromethyl)phenyl]methoxy}-3-methoxyphenyl)-2H,4H,5H,6H,7H-pyrazolo[3,4-b]pyridin-6-one] stands 100 to 1000 nM. `Nc1cc(C2CC(=O)Nc3n[nH]cc32)ccc1OCc1ccccc1C(F)(F)F` (stereo not drawn) [Example 161, 4-(3-amino-4-{[2-(trifluoromethyl)phenyl]methoxy}phenyl)-2H,4H,5H,6H, 7H-pyrazolo[3,4-b]pyridin-6-one]: the IC50 is 100 to 1000 nM.

On to `CN(C)c1cc(OCc2ccccc2C(F)(F)F)ccc1C1CC(=O)Nc2n[nH]cc21` (stereo not drawn) [Example 162, 4-[2-(dimethylamino)-4-{[2-(trifluoromethyl)phenyl]methoxy}phenyl]-2H,4H,5H,6H, 7H-pyrazolo[3,4-b]pyridin-6-one], for which the IC50 is 100 to 1000 nM. The same measure, in the same setting: next, `COCCCOc1cc(C2CC(=O)Nc3n[nH]cc32)ccc1OCc1ccccc1C(F)(F)F` (stereo not drawn) [Example 163, 4-[3-(3-methoxypropoxy)-4-{[2-(trifluoromethyl)phenyl]methoxy}phenyl]-2H,4H,5H,6H,7H-pyrazolo[3,4-b]pyridin-6-one]: 10 to 100 nM. Same read-out and setting: next, `COCCOc1cc(C2CC(=O)Nc3n[nH]cc32)ccc1OCc1ccccc1C(F)(F)F` (stereo not drawn) [Example 164, 4-[3-(2-methoxyethoxy)-4-{[2-(trifluoromethyl)phenyl]methoxy}phenyl]-2H,4H,5H,6H, 7H-pyrazolo[3,4-b]pyridin-6-one]: 10 to 100 nM; `O=C1CC(c2cnc(OCc3ccccc3C(F)(F)F)nc2)c2c[nH]nc2N1` (stereo not drawn) [Example 165, 4-(2-{[2-(trifluoromethyl)phenyl]methoxy}pyrimidin-5-yl)-2H,4H,5H,6H, 7H-pyrazolo[3,4-b]pyridin-6-one]: 100 to 1000 nM; `COc1cc(C2CC(=N)Nc3n[nH]cc32)ccc1OCc1ccccc1C(F)(F)F` (stereo not drawn) [Example 167, 4-(3-methoxy-4-{[2-(trifluoromethyl)phenyl]methoxy}phenyl)-2H,4H,5H,6H, 7H-pyrazolo[3,4-b]pyridin-6-imine]: 100 to 1000 nM. Same read-out and setting: next, `COc1cc(-c2cc(=O)[nH]c3[nH]ccc23)ccc1OCc1ccccc1C(F)(F)F` [Example 168, 4-(3-methoxy-4-{[2-(trifluoromethyl)phenyl]methoxy}phenyl)-1H,6H, 7H-pyrrolo[2,3-b]pyridin-6-one]: 100 to 1000 nM; `COc1ccccc1COc1ccc(-c2cc(=O)[nH]c3n[nH]cc23)cc1OC` [Example 171, 4-{3-methoxy-4-[(2-methoxyphenyl)methoxy]phenyl}-2H,6H, 7H-pyrazolo[3,4-b]pyridin-6-one]: 10 to 100 nM. For the compound `COc1cc(-c2cc(=O)[nH]c3n[nH]cc23)ccc1OCc1ccncc1C(F)(F)F` [Example 172, 4-(3-methoxy-4-{[3-(trifluoromethyl)pyridin-4-yl]methoxy}phenyl)-2H,6H, 7H-pyrazolo[3,4-b]pyridin-6-one], the IC50 was 100 to 1000 nM. On the same count and under the same terms, under `COc1cc(-c2cc(=O)[nH]c3n[nH]cc23)ccc1OCc1ccc(C#N)cc1C(F)(F)F` [Example 181, 4-[(2-methoxy-4-{6-oxo-2H,6H, 7H-pyrazolo[3,4-b]pyridin-4-yl}phenoxy)methyl]-3-(trifluoromethyl)benzonitrile] stands 10 to 100 nM; under `COc1ccc([N+](=O)[O-])cc1COc1ccc(-c2cc(=O)[nH]c3n[nH]cc23)cc1OC` [Example 182, 4-{3-methoxy-4-[(2-methoxy-5-nitrophenyl)methoxy]phenyl}-2H,6H,7H-pyrazolo[3,4-b]pyridin-6-one], 10 to 100 nM; under `COc1cc(-c2cc(=O)[nH]c3n[nH]cc23)ccc1OCc1ccccc1` [Example 183, 4-[4-(benzyloxy)-3-methoxyphenyl]-2H,6H, 7H-pyrazolo[3,4-b]pyridin-6-one], 100 to 1000 nM.

Turning to `COc1cc(Br)c(COc2ccc(-c3cc(=O)[nH]c4n[nH]cc34)cc2OC)cc1OC` [Example 184, 4-{4-[(2-bromo-4,5-dimethoxyphenyl)methoxy]-3-methoxyphenyl}-2H,6H, 7H-pyrazolo[3,4-b]pyridin-6-one], the IC50 was 100 to 1000 nM.
